IC50 data for 25 compounds are collected here from ChEMBL document CHEMBL1159104, “Potent transglutaminase inhibitors, aryl beta-aminoethyl ketones” (Bioorg Med Chem Lett, 2010).

The assay deals with T1, Protein-glutamine gamma-glutamyltransferase (Cavia porcellus, UniProt Q7M0F8).
T1 sequence (Q7M0F8 whole entry): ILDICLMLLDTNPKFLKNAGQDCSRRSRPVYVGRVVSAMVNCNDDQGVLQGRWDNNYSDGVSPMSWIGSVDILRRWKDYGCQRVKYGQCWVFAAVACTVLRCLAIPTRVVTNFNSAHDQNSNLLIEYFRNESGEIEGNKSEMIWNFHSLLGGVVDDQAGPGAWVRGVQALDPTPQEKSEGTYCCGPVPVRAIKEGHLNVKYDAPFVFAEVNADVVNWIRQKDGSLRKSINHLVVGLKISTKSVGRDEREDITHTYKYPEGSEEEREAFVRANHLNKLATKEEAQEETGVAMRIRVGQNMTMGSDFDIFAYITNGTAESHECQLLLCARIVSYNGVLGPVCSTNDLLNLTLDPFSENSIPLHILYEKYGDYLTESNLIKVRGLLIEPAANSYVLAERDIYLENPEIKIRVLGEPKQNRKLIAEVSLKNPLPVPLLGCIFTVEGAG
The assay can be described thus: Inhibition of guinea pig liver transglutaminase.

Consider `CN(CCO)CCC(=O)c1nccs1`, for which the half-maximal inhibitory concentration (IC50) (usually the concentration that gives 50% inhibition) amounted to 4700 nM. Regarding `O=C(CCN(CCO)Cc1ccccc1)c1csc(Cl)c1`, the IC50 stood at 2700 nM. Take `CN(CCO)CCC(=O)c1ccco1`: inhibition was half-maximal at 1200 nM (IC50). Against the preceding compound, the IC50 is about 2.2-fold lower.

`CC(C)N(CCC(=O)c1ccc2ccccc2c1)Cc1ccccc1` came in with an IC50 of 4000 nM. `CC(C)N(CCO)CCC(=O)c1ccncc1` displayed a concentration for half-maximal inhibition (IC50) of 4800 nM. `CC(C)(C)N(CCC(=O)c1cccnc1)Cc1ccccc1` registered a half-maximal inhibitory concentration (IC50) of 470 nM. This IC50 is about 10-fold lower than that of the compound before.

As to `CC(C)N(CCC(=O)c1ccc(Cc2ccccc2)cc1)Cc1ccccc1`, the half-maximal inhibitory concentration (IC50) came out at 2600 nM. Against the preceding compound, the IC50 is about 5.5-fold higher. The compound `CCCCN(CCO)CCC(=O)c1ccc(Oc2ccccc2)cc1` displayed an IC50 of 7400 nM. Against the preceding compound, the IC50 is about 2.8-fold higher. Compound `CCc1nccnc1C(=O)CCN(CCO)C(C)C` showed an IC50 of 7700 nM. The figure for `CC(C)N(CCC(=O)c1ccccn1)Cc1ccccc1` is 1100 nM; for `CC(C)N(CCC(=O)c1ccc(F)cc1)Cc1ccccc1` it is 10000 nM. In the case of `Cc1cnc(C(=O)CCN(C)Cc2ccccc2)s1`, the IC50 stood at 1800 nM. This IC50 lies about 5.6-fold lower than the previous one. `O=C(CCN(CCO)Cc1ccccc1)c1ccncc1` yielded a half-maximal inhibitory concentration (IC50) of 2500 nM. This IC50 and that of the compound before are within 1.5-fold of each other. Compound `CC(C)N(CCO)CCC(=O)c1ccc(Cl)cc1` had a concentration for half-maximal inhibition (IC50) of 2200 nM. For the compound `CC(C)N(CCO)CCC(=O)c1ccsc1`, the half-maximal inhibitory concentration (IC50) amounted to 11000 nM. In the case of `O=C(CCN(CCO)CCO)c1ccc(Cl)s1`, half-maximal inhibition (IC50) required 1900 nM. On to `CCCCN(CCO)CCC(=O)c1ccc(Br)s1`, for which the concentration for half-maximal inhibition (IC50) worked out at 1400 nM. `CC(C)N(CCC(=O)c1ccc(Oc2ccccc2)cc1)Cc1ccccc1`: the IC50 was determined as 12000 nM. `CCN(CCC(=O)c1ccc(C)o1)Cc1ccccc1` gave an IC50 of 2800 nM. Then `CCN(CCC(=O)c1ccsc1)Cc1ccccc1`, with 12000 nM; and `CC(C)(C)N(CCC(=O)c1nccs1)Cc1ccccc1`, with 1400 nM; and `CC(C)N(CCC(=O)c1ccncc1)Cc1ccccc1`, with 830 nM. In the case of `CC(C)(C)N(CCC(=O)c1ccccn1)Cc1ccccc1`, 1000 nM corresponded to half-maximal inhibition (IC50). Then `CCCCN(CCO)CCC(=O)c1ccc2c(Cl)cccc2c1`, with 1900 nM; and `CC(C)(C)N(CCC(=O)c1ccccc1)Cc1ccccc1`, with 1700 nM.
